Reference: patent US12077503B2, “Substituted cyclic amides and their use as herbicides” (FMC CORPORATION, priority 2015, dated 2024)

Columns and labels:
Format in all cases: in vivo
[1] = tested on: pigweed (Amaranthus retroflexus); test: Test A preemergence; conditions: Preemergence; for Plant response rating, Pigweed: 125 g ai/ha, visual injury after approximately 10 d, 0 to 100 scale where 0 is no effect and 100 is complete control; for Pigweed plant response rating (0 to 100 scale, 0 is no effect, 100 is complete control): 500 g ai/ha, visual injury approx. 10 d
[2] = tested on: giant foxtail (Setaria faberii); test: Test A preemergence; conditions: Preemergence; for Plant response rating, Foxtail, Giant: 125 g ai/ha, visual injury after approximately 10 d, 0 to 100 scale where 0 is no effect and 100 is complete control; for Foxtail, Giant plant response rating (0 to 100 scale, 0 is no effect, 100 is complete control): 500 g ai/ha, visual injury approx. 10 d
Method in brief: (§1)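 Seeds sprayed preemergence with a directed soil spray, or plants at 2 to 10 cm height and one- to two-leaf stage sprayed postemergence, with test chemicals in a non-phytotoxic solvent mixture containing surfactant, in loam soil–sand blend. Injury rated visually against untreated controls after about 10 d in greenhouse, 0 (no effect) to 100 (complete control).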

[3] = tested on: Kochia (Kochia scoparia); test: Test A preemergence; conditions: Preemergence; for Plant response rating, Kochia: 125 g ai/ha, visual injury after approximately 10 d, 0 to 100 scale where 0 is no effect and 100 is complete control; for Kochia plant response rating (0 to 100 scale, 0 is no effect, 100 is complete control): 500 g ai/ha, visual injury approx. 10 d
Method in brief: as §1

[4] = tested on: barnyardgrass (Echinochloa crus-galli); test: Test A preemergence; conditions: Preemergence; for Plant response rating, Barnyardgrass: 125 g ai/ha, visual injury after approximately 10 d, 0 to 100 scale where 0 is no effect and 100 is complete control; for Barnyardgrass plant response rating (0 to 100 scale, 0 is no effect, 100 is complete control): 500 g ai/ha, visual injury approx. 10 d
Method in brief: as §1

[5] = tested on: ryegrass, Italian (Italian ryegrass, Lolium multiflorum); test: Test A preemergence; conditions: Preemergence; for Plant response rating, Ryegrass, Italian: 125 g ai/ha, visual injury after approximately 10 d, 0 to 100 scale where 0 is no effect and 100 is complete control; for Ryegrass, Italian plant response rating (0 to 100 scale, 0 is no effect, 100 is complete control): 500 g ai/ha, visual injury approx. 10 d
Method in brief: as §1

[6] = tested on: ragweed (common ragweed, Ambrosia elatior); test: Test A preemergence; conditions: Preemergence; for Plant response rating, Ragweed: 125 g ai/ha, visual injury after approximately 10 d, 0 to 100 scale where 0 is no effect and 100 is complete control; for Ragweed plant response rating (0 to 100 scale, 0 is no effect, 100 is complete control): 500 g ai/ha, visual injury approx. 10 d
Method in brief: as §1

[7] = tested on: blackgrass (Alopecurus myosuroides); test: Test A postemergence; conditions: for Blackgrass plant response rating: 125 g ai/ha, postemergence, visual injury rating on 0 to 100 scale (0 no effect, 100 complete control), approx. 10 d; for Plant response rating, Blackgrass: Postemergence, 500 g ai/ha, 0 to 100 scale where 0 is no effect and 100 is complete control
Method in brief: as §1

[8] = tested on: corn (Zea mays); test: Test A postemergence; conditions: for Corn plant response rating: 125 g ai/ha, postemergence, visual injury rating on 0 to 100 scale (0 no effect, 100 complete control), approx. 10 d; for Plant response rating, Corn: Postemergence, 500 g ai/ha, 0 to 100 scale where 0 is no effect and 100 is complete control
Method in brief: as §1

[9] = tested on: pigweed (Amaranthus retroflexus); test: Test A postemergence; conditions: for Pigweed plant response rating: 125 g ai/ha, postemergence, visual injury rating on 0 to 100 scale (0 no effect, 100 complete control), approx. 10 d; for Plant response rating, Pigweed: Postemergence, 500 g ai/ha, 0 to 100 scale where 0 is no effect and 100 is complete control
Method in brief: as §1

[10] = tested on: giant foxtail (Setaria faberii); test: Test A postemergence; conditions: for Foxtail, Giant plant response rating: 125 g ai/ha, postemergence, visual injury rating on 0 to 100 scale (0 no effect, 100 complete control), approx. 10 d; for Plant response rating, Foxtail, Giant: Postemergence, 500 g ai/ha, 0 to 100 scale where 0 is no effect and 100 is complete control
Method in brief: as §1

[11] = tested on: Kochia (Kochia scoparia); test: Test A postemergence; conditions: for Kochia plant response rating: 125 g ai/ha, postemergence, visual injury rating on 0 to 100 scale (0 no effect, 100 complete control), approx. 10 d; for Plant response rating, Kochia: Postemergence, 500 g ai/ha, 0 to 100 scale where 0 is no effect and 100 is complete control
Method in brief: as §1

[12] = tested on: Galium (catchweed bedstraw, Galium aparine); test: Test A postemergence; conditions: for Galium plant response rating: 125 g ai/ha, postemergence, visual injury rating on 0 to 100 scale (0 no effect, 100 complete control), approx. 10 d; for Plant response rating, Galium: Postemergence, 500 g ai/ha, 0 to 100 scale where 0 is no effect and 100 is complete control
Method in brief: as §1

[13] = tested on: barnyardgrass (Echinochloa crus-galli); test: Test A postemergence; conditions: for Barnyardgrass plant response rating: 125 g ai/ha, postemergence, visual injury rating on 0 to 100 scale (0 no effect, 100 complete control), approx. 10 d; for Plant response rating, Barnyardgrass: Postemergence, 500 g ai/ha, 0 to 100 scale where 0 is no effect and 100 is complete control
Method in brief: as §1

[14] = tested on: ryegrass, Italian (Italian ryegrass, Lolium multiflorum); test: Test A postemergence; conditions: for Ryegrass, Italian plant response rating: 125 g ai/ha, postemergence, visual injury rating on 0 to 100 scale (0 no effect, 100 complete control), approx. 10 d; for Plant response rating, Ryegrass, Italian: Postemergence, 500 g ai/ha, 0 to 100 scale where 0 is no effect and 100 is complete control
Method in brief: as §1

[15] = tested on: wheat (Triticum aestivum); test: Test A postemergence; conditions: for Wheat plant response rating: 125 g ai/ha, postemergence, visual injury rating on 0 to 100 scale (0 no effect, 100 complete control), approx. 10 d; for Plant response rating, Wheat: Postemergence, 500 g ai/ha, 0 to 100 scale where 0 is no effect and 100 is complete control
Method in brief: as §1

[16] = tested on: ragweed (common ragweed, Ambrosia elatior); test: Test A postemergence; conditions: for Ragweed plant response rating: 125 g ai/ha, postemergence, visual injury rating on 0 to 100 scale (0 no effect, 100 complete control), approx. 10 d; for Plant response rating, Ragweed: Postemergence, 500 g ai/ha, 0 to 100 scale where 0 is no effect and 100 is complete control
Method in brief: as §1

[17] = tested on: sedge, umbrella (small-flower umbrella sedge, Cyperus difformis); test: Test B flooded paddy test; conditions: Flood, 250 g ai/ha; 0 to 100 scale where 0 is no effect and 100 is complete control; 13 to 15 d
Method in brief: (§2)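 Flooding to 3 cm over soil accompanied treatment, which consisted of adding compound to the standing water around 2-leaf plants; depth was then maintained. Visual assessment versus controls followed at 13 to 15 d (scale 0–100, 0 meaning no effect).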

[18] = tested on: rice (Oryra sativa); test: Test B flooded paddy test; conditions: Flood, 250 g ai/ha; 0 to 100 scale where 0 is no effect and 100 is complete control; 13 to 15 d
Method in brief: as §2

[19] = tested on: barnyardgrass (Echinochloa crus-galli); test: Test B flooded paddy test; conditions: Flood, 250 g ai/ha; 0 to 100 scale where 0 is no effect and 100 is complete control; 13 to 15 d
Method in brief: as §2

[20] = tested on: ducksalad (Heteranthera limosa); test: Test B flooded paddy test; conditions: Flood, 250 g ai/ha; 0 to 100 scale where 0 is no effect and 100 is complete control; 13 to 15 d
Method in brief: as §2

| Structure (SMILES) | Plant response rating, Pigweed [1] | Pigweed plant response rating (0 to 100 scale, 0 is no effect, 100 is complete control) [1] | Plant response rating, Foxtail, Giant [2] | Foxtail, Giant plant response rating (0 to 100 scale, 0 is no effect, 100 is complete control) [2] | Plant response rating, Kochia [3] | Kochia plant response rating (0 to 100 scale, 0 is no effect, 100 is complete control) [3] | Plant response rating, Barnyardgrass [4] | Barnyardgrass plant response rating (0 to 100 scale, 0 is no effect, 100 is complete control) [4] | Plant response rating, Ryegrass, Italian [5] | Ryegrass, Italian plant response rating (0 to 100 scale, 0 is no effect, 100 is complete control) [5] | Plant response rating, Ragweed [6] | Ragweed plant response rating (0 to 100 scale, 0 is no effect, 100 is complete control) [6] | Blackgrass plant response rating [7] | Plant response rating, Blackgrass [7] | Corn plant response rating [8] | Plant response rating, Corn [8] | Pigweed plant response rating [9] | Plant response rating, Pigweed [9] | Foxtail, Giant plant response rating [10] | Plant response rating, Foxtail, Giant [10] | further results |
| --- | --- | --- | --- | --- | --- | --- | --- | --- | --- | --- | --- | --- | --- | --- | --- | --- | --- | --- | --- | --- | --- |
| O=C(Nc1ccccc1F)C1C(=O)N(CC=CCl)CC1c1cccc(C(F)(F)F)c1 (stereo not drawn) [Compound 483] | 0 | 0 | 70 | 90 | 0 | 0 | 0 | 70 | 0 | 30 | 0 | 0 | 0 | 0 | 0 | 0 | 0 | 0 | 20 | 70 | Kochia plant response rating [11]: 0; Plant response rating, Kochia [11]: 20; Galium plant response rating [12]: 0; Plant response rating, Galium [12]: 0; Barnyardgrass plant response rating [13]: 20; Plant response rating, Barnyardgrass [13]: 60; Ryegrass, Italian plant response rating [14]: 0; Plant response rating, Ryegrass, Italian [14]: 0; Wheat plant response rating [15]: 0; Plant response rating, Wheat [15]: 0; Ragweed plant response rating [16]: 0; Plant response rating, Ragweed [16]: 0; Plant response rating, Sedge, Umbrella [17]: 0; Plant response rating, Rice [18]: 0; Plant response rating, Barnyardgrass [19]: 0; Plant response rating, Ducksalad [20]: 30 |
| Cc1ccc(C2CNC(=O)C2C(=O)Nc2ccc(F)cc2F)c(F)c1 (racemic) [Compound 508] | 0 | 0 | 40 | 70 | 0 | 0 | 70 | 90 | 0 | 0 | 0 | 0 | 0 | 0 | 0 | 20 | 0 | 20 | 0 | 40 | Kochia plant response rating [11]: 0; Plant response rating, Kochia [11]: 20; Galium plant response rating [12]: 0; Plant response rating, Galium [12]: 20; Barnyardgrass plant response rating [13]: 70; Plant response rating, Barnyardgrass [13]: 90; Ryegrass, Italian plant response rating [14]: 0; Plant response rating, Ryegrass, Italian [14]: 0; Wheat plant response rating [15]: 0; Plant response rating, Wheat [15]: 20; Ragweed plant response rating [16]: 0; Plant response rating, Ragweed [16]: 0; Plant response rating, Sedge, Umbrella [17]: 0; Plant response rating, Rice [18]: 0; Plant response rating, Barnyardgrass [19]: 0; Plant response rating, Ducksalad [20]: 50 |
